# PubChem BioAssay AID743348 (Broad Institute, 2014)
# The source made the active and inactive calls.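 The calls were made as follows: active = AC50 for ATP loss at or below twice the top valid dose tested, with the signal falling; inconclusive = flat fit showing moderate loss, or a poor-quality fit; inactive = the rest, including rises in signal.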
# How the values were obtained:
# [1] = cell viability loss in HepG2 cells – ATP luminescence, dry powder, set 10, cytotoxicity control, dose response (AID 743348); conditions: HepG2 viability, CellTiter-Glo ATP luminescence, 72 h; at 26 µM (top of the series)
# [2] = system: HepG2 viability, CellTiter-Glo ATP luminescence, 72 h; test: as above
SMILES,"activity change, negative = cytotoxicity [1]",AC50 [2]
CC(=O)c1ccc(N2CCN(C(=O)Nc3ccc4c(c3)OCO4)CC2)cc1,-12% (inactive),
CC(=O)c1ccc(N2CCN(S(=O)(=O)c3ccc4c(c3)OCO4)CC2)cc1,,> 52 µM (inactive)
O=C(c1ccc2c(c1)OCO2)N1CCN(c2ccc(S(=O)(=O)C(F)F)cc2)CC1,27.7% (inactive),
CC(=O)c1ccc(N2CCN(C(=O)c3ccc(Cl)c(Cl)c3)CC2)cc1,55.4% (inactive),
CC(=O)c1ccc(N2CCN(C(=O)c3cc(Cl)c4c(c3)OCO4)CC2)cc1,6.73% (inactive),
COc1ccc(C(=O)N2CCN(c3ccc(C(C)=O)cc3)CC2)cc1OC,9.73% (inactive),
O=C(c1ccc2c(c1)OCO2)N1CCN(c2ccc(S(=O)(=O)C(F)(F)F)cc2)CC1,24.8% (inactive),
CC(=O)c1ccc(N2CCN(C(=O)c3cc4c(cc3C)OCO4)CC2)cc1,31.1% (inactive),
CC(=O)c1ccc(N2CCN(C(=O)c3cc4c(cc3Cl)OCO4)CC2)cc1,28.5% (inactive),
CC(=O)c1ccc(N2CCN(C(=O)c3ccc4snnc4c3)CC2)cc1,19.1% (inactive),
O=C(c1ccc2c(c1)OCO2)N1CCN(c2ccc(OC(F)(F)F)cc2)CC1,-0.808% (inactive),
CC(=O)c1ccc(N2CCN(C(=O)c3cc4c(cn3)OCO4)CC2)cc1,-2.87% (inactive),
CC(=O)c1ccc(N2CCN(C(=O)c3ccc4c(c3)OCO4)CC2)cc1,-3.33% (inactive),
CS(=O)(=O)c1ccc(N2CCN(C(=O)c3ccc4c(c3)OCO4)CC2)cc1,-7.24% (inactive),
CC(=O)c1ccc(N2CCN(C(=O)c3cccc4c3OCO4)CC2)cc1,14.1% (inactive),
CC(=O)c1ccc(N2CCCN(C(=O)c3ccc4c(c3)OCO4)CC2)cc1,11.7% (inactive),
COc1cc2c(cc1C(=O)N1CCN(c3ccc(C(C)=O)cc3)CC1)OCO2,7.72% (inactive),
CC(=O)c1ccc(N2CCN(C(=O)c3ccc4c(c3C)OCO4)CC2)cc1,0.898% (inactive),
CC(=O)c1ccc(N2CCN(C(=O)c3ccc4c(c3)OC(C)(C)O4)CC2)cc1,-6.05% (inactive),
CC(=O)c1ccc(N2CCN(C(=O)c3ccc4c(c3)OC(F)(F)O4)CC2)cc1,14.2% (inactive),
COc1cc(C(=O)N2CCN(c3ccc(C(C)=O)cc3)CC2)cc2c1OCO2,12% (inactive),
CC(=O)c1ccc(N2CC3CC2CN3C(=O)c2ccc3c(c2)OCO3)cc1 (stereo not given),36.6% (inactive),
CC(=O)c1ccc(N2CCN(C(=O)c3ccc4ocnc4c3)CC2)cc1,10.9% (inactive),
N#Cc1ccc(N2CCN(C(=O)c3ccc4c(c3)OCO4)CC2)cc1,-5.11% (inactive),
O=C(c1ccc2c(c1)OCO2)N1CCN(c2ccc(C(F)(F)F)cc2)CC1,7.07% (inactive),
